Laboratory results from patent US20240261267A1, “METHODS FOR TREATING MULTIPLE SCLEROSIS” (Vanda Pharmaceuticals Inc., priority 2021, published 2024).

Experiments:
[1] = comparison given in brackets; cited from earlier work
[2] = system: adult subjects with relapsing MS; assay: Phase III OPTIMUM study, safety and treatment discontinuation
Experimental: A prospective, multicenter, randomized, double-blind, active controlled, parallel-group, phase III, superiority study (Phase III OPTIMUM study) was conducted.
Subjects had active disease evidenced by one or more MS attacks with onset within the period of 12 to 1 months prior to baseline EDSS assessment, or by two or more MS attacks with onset within the 24 to 1 months prior to baseline EDSS assessment, or with one or more gadolinium-enhancing (Gd+) lesion(s) of the brain on an MRI performed within 6 months prior to baseline EDSS assessment. Enrolled subjects were ambulatory with an EDSS score of up to 5.5 inclusive. The subjects were treatment-naïve (i.e., no MS disease-modifying therapy received at any time in the past) or previously treated with interferon (IFN) β-1a, IFN β-1b, glatiramer acetate, dimethyl fumarate, or natalizumab.
The treatment period consisted of an up-titration period (from Day 1 to 14) and a maintenance period (Day 15 until EOT).
To reduce the first-dose effect of ponesimod, an up-titration scheme was implemented from Day 1 to Day 14: • Days 1 and 2; 2 mg. • Days 3 and 4; 3 mg. • Days 5 and 6; 4 mg. • Day 7; 5 mg. • Day 8; 6 mg. • Day 9; 7 mg. • Day 10; 8 mg. • Day 11; 9 mg. • Days 12, 13, and 14; 10 mg. • Day 15 until EOT; 20 mg.
The Safety Set (SAF) included all randomized subjects who received at least one dose of study treatment. Subjects were analyzed based on actual treatment taken, not randomized treatment.

[3] = system: primary mouse OPCs; assay: agarose drop migration assay; type: cell-based; conditions: 3000 nM; after 5 days; normalized to 0.1% DMSO
Experimental: The effects of ponesimod, a selective S1P1 receptor agonist, and A971432, a selective S1P5 receptor agonist, on oligodendrocyte precursor cell (OPC) migration and differentiation were evaluated. Nine concentrations were tested (logarithmic dilutions ranging from 0.3 nM to 3000 nM, n=6 per concentration). Fingolimod phosphate (P-FTY720, 3000 nM, n=6) was included as a positive control, 0.1% DMSO was included (min.one/plate) as a negative control. Primary mouse OPCs were harvested on postnatal day 0 or 1 and mixed glia cultures were maintained for 14 days. Primary OPCs were then purified using the shake-off method, and used for either a migration assay, or a differentiation assay, as detailed below. To harvest primary mouse OPCs, cortices are isolated from mouse pups on postnatal day 0 or 1 and placed in ice-cold Dulbecco's Modified Eagle Medium (DMEM) (Sigma Aldrich, Overijse, BE). The cortices are homogenized and centrifuged for 5 minutes at 300 G. The supernatant is removed, and a papain solution is added for 30 minutes (125 uL DMEM solution per brain containing 20 units/ml papain and 40 μg/ml DNase, at 37 degrees). Digestion is inactivated by adding 9 ml cold DMEM. The solution is then centrifuged for 5 minutes at […]. The supernatant is carefully removed, and the pellet is resuspended in 2-5 ml culture medium (DMEM with 10% fetal calf serum (Biowest, Nuaillé, FR) and 1% pen/strep (Sigma Aldrich, Overijse, BE)). […] Cell suspension is divided over PLL (Sigma Aldrich, Overijse, BE)-coated flasks (2 brains per flask) and DMEM is added to a final volume of 10 ml. DMEM is replaced on day 4, 7, and 11. On day 7 and 11, insulin (Sigma Aldrich, Overijse, BE) is added to the medium (5μg/ml). On day 14, OPCs are separated from astrocytes by the shake-off method: flasks are placed on a shaker for 45 minutes at 75 rpm (37 degrees). […] The extent of cell migration is then measured after 5 days using Incucyte imaging analysis and fluorescent endpoint staining. For each well, the 15-20 cells that migrated the furthest away from the agarose drop are measured and averaged. […]

[4] = Safety Set, ponesimod 20 mg, teriflunomide 14 mg
[5] = ponesimod 20 mg, teriflunomide 14 mg

## CCCCCCCCc1ccc(CCC(N)(CO)CO)cc1 [fingolimod]
[1]
  ECG HR effect: nadir: ~6 h

## CCc1cc(/C(C)=N/OCc2ccc(C3CCCCC3)c(C(F)(F)F)c2)ccc1CN1CC(C(=O)O)C1 [siponimod]
[1]
  ECG HR effect: nadir: 3 to 4 h

## C/C(O)=C(\C#N)C(=O)Nc1ccc(C(F)(F)F)cc1 [teriflunomide]
[2]; Day 1, all with pre-treatment HR<55 bpm
  subjects with asymptomatic post-dose HR≤40 bpm: none
[2]; [4]
  AEs leading to premature discontinuation of study drug, SOC Eye disorders: 0 n
  AEs leading to premature discontinuation of study drug, SOC Respiratory, thoracic and mediastinal disorders: 0 n
  AEs leading to premature discontinuation of study drug, SOC Vascular disorders: 0 n
  Subject with at least one AE leading to study drug discontinuation: 6.0%
  Subject with at least one Serious AE: 8.1%
  Subject with at least one treatment-emergent AE: 88.2%
  Treatment-emergent AESI: Hepatobiliary disorders/Liver enzyme abnormality: 14.5%
  Treatment-emergent AESI: Hypertension: 9.0%
  Treatment-emergent AESI: Pulmonary events: 2.7%
[2]; at 2-hours post dose, Day 1
  mean heart rate reduction compared to pre-dose: −1.7 bpm
[2]; on Day 1, Safety Set
  AESI heart rate and rhythm: Atrioventricular block first degree: 0 n
  AESI heart rate and rhythm: Bradycardia: 0 n
  AESI heart rate and rhythm: Bundle branch block left: 0 n
  AESI heart rate and rhythm: Bundle branch block right: 0 n
  AESI heart rate and rhythm: Defect conduction intraventricular: 0 n
  AESI heart rate and rhythm: Sinus arrhythmia: 0 n
  AESI heart rate and rhythm: Sinus bradycardia: 0 n
[2]; on Day 1, Safety Set, ponesimod arm (2 mg on Day 1), teriflunomide 14 mg
  AESI effect on heart rate and rhythm (including hypotension): Subjects with at least one AE: 0.4%
[2]; [5]
  TEAE ALT increased: 9.4%
  TEAE headache: 12.7%
  TEAE nasopharyngitis: 16.8%
  TEAE upper respiratory tract infection: 10.4%
  proportion of subjects who experienced ALT increase>3×ULN: 8.3%
  proportion of subjects who experienced ALT increase>8×ULN: 2.1%
  subjects discontinued due to AEs or tolerability related reasons: 2.5%

## fingolimod phosphate
[3]
  migration distance: significantly decreased migration distance
